Test results reported in ChEMBL document CHEMBL1777728, “Amino-caprolactam γ-secretase inhibitors showing potential for the treatment of Alzheimer's disease” (Bioorg Med Chem Lett, 2011).

What was measured:
[1] = Inhibition of gamma-secretase-mediated notch cleavage after 2 hrs by ELISA
[2] = Selectivity ratio of IC50 for gamma-secretase-mediated notch cleavage to IC50 gamma-secretase-mediated APP cleavage
[3] = Inhibition of gamma-secretase-mediated APP cleavage assessed as amyloid beta40 level after 2 hrs by ELISA
MDCK = test: Efflux ratio of permeability from basolateral to apical over apical to basolateral side in human MDR1 transfected MDCK cells at 5 uM after 120 mins by LC-MS/MS analysis; type: ADME, cell-based, Canis lupus familiaris; settings: dog, 2 h
Mus musculus [4] = test: Neuroprotective activity in P-gp KO (MDR1 ab-/-) mouse brain assessed as reduction of amyloid beta x-40 level at 100 mg/kg, ip; type: functional; settings: route intraperitoneal
Mus musculus [5] = test: Neuroprotective activity in wild type FVB mouse brain assessed as reduction of amyloid beta x-40 level at 100 mg/kg, ip; type: functional; settings: route intraperitoneal

Structure (SMILES) | IC50 [1] [µM] | Ratio IC50 [2] | IC50 [3] [µM] | Ratio (MDCK) | inhibition in vivo at 100 mg/kg (Mus musculus [4]) [%] | inhibition in vivo at 100 mg/kg (Mus musculus [5]) [%]
CC(C)NC(=O)c1ccc(CN([C@@H]2CCCCNC2=O)S(=O)(=O)c2ccc(Cl)cc2)cc1 | 0.066 | 2 | 0.03 | – | – | –
O=C1NCCCC[C@H]1N(Cc1ccc2nsnc2c1)S(=O)(=O)c1ccc(Cl)cc1 | 0.039 | 3 | 0.013 | 2 | – | –
O=C(NCc1ccccc1)c1ccc(CN([C@@H]2CCCCNC2=O)S(=O)(=O)c2ccc(Cl)cc2)cc1 | 0.016 | 2 | 0.009 | – | – | –
O=C(NC1CCC1)c1ccc(CN([C@@H]2CCCCNC2=O)S(=O)(=O)c2ccc(Cl)cc2)cc1 | 0.049 | 2 | 0.023 | – | – | –
O=C1NCCCC[C@H]1N(Cc1cnc2ccccc2c1)S(=O)(=O)c1ccc(Cl)cc1 | 0.126 | 2 | 0.052 | – | – | –
COC(=O)c1ccc(CN([C@@H]2CCCCNC2=O)S(=O)(=O)c2ccc(Cl)cc2)cc1 | – | – | 0.003 | – | – | –
CC(C)(C)CNC(=O)c1ccc(CN([C@@H]2CCCCNC2=O)S(=O)(=O)c2ccc(Cl)cc2)cc1 | 0.055 | 2 | 0.03 | – | – | –
Cn1c(CN([C@@H]2CCCCNC2=O)S(=O)(=O)c2ccc(Cl)cc2)cc2ccccc21 | 2.79 | 5 | 0.565 | – | – | –
O=C(NC1CCCC1)c1ccc(CN([C@@H]2CCCCNC2=O)S(=O)(=O)c2ccc(Cl)cc2)cc1 | 0.014 | 0.6 | 0.023 | – | – | –
COc1ccc(CN([C@@H]2CCCCNC2=O)S(=O)(=O)c2ccc(Cl)cc2)cc1OC | – | – | 0.17 | – | – | –
O=C1NCCCC[C@H]1N(CC1CCc2ccccc2O1)S(=O)(=O)c1ccc(Cl)cc1 (some centres not stated) | 0.196 | 1 | 0.131 | – | – | –
O=C(Nc1ccccc1)c1ccc(CN([C@@H]2CCCCNC2=O)S(=O)(=O)c2ccc(Cl)cc2)cc1 | 0.091 | 1 | 0.076 | – | – | –
Cc1ccc(CN([C@@H]2CCCCNC2=O)S(=O)(=O)c2ccc(Cl)cc2)o1 | 0.601 | 1 | 0.432 | – | – | –
Cc1ccc(CN([C@@H]2CCCCNC2=O)S(=O)(=O)c2ccc(Cl)cc2)s1 | – | – | 0.081 | – | – | –
O=C1NCCCC[C@H]1N(Cc1ccc2c(c1)OCCO2)S(=O)(=O)c1ccc(Cl)cc1 | 0.152 | 17 | 0.009 | 2.7 | – | –
O=C1NCCCC[C@H]1N(Cc1csnn1)S(=O)(=O)c1ccc(Cl)cc1 | 2.12 | 3 | 0.758 | – | – | –
O=C(NC1CC1)c1ccc(CN([C@@H]2CCCCNC2=O)S(=O)(=O)c2ccc(Cl)cc2)cc1 | 0.065 | 2 | 0.031 | – | – | –
O=C1NCCCC[C@H]1N(Cc1nccs1)S(=O)(=O)c1ccc(Cl)cc1 | 1.83 | 1 | 1.83 | – | – | –
O=C1NCCCC[C@H]1N(Cc1ccc2nccnc2c1)S(=O)(=O)c1ccc(Cl)cc1 | 0.028 | 2 | 0.015 | 1.8 | 61 | 26
COc1cc(CN([C@H]2CCCCNC2=O)S(=O)(=O)c2ccc(Cl)cc2)ccc1OCCc1scnc1C | – | – | 2 | – | – | –
COc1cc(CN([C@@H]2CCCCNC2=O)S(=O)(=O)c2ccc(Cl)cc2)ccc1OCCc1scnc1C | – | – | 0.17 | – | – | –
COc1cc(CN(C2CCCCNC2=O)S(=O)(=O)c2ccc(Cl)cc2)ccc1OCCc1scnc1C (configuration not stated) | – | – | 1.7 | – | – | –
O=C1NCCCC[C@H]1N(Cc1ccc2snnc2c1)S(=O)(=O)c1ccc(Cl)cc1 | 0.025 | 3 | 0.008 | 2 | 60 | 32
O=C1NCCCC[C@H]1N(Cc1cnc2ncccc2c1)S(=O)(=O)c1ccc(Cl)cc1 | 1.05 | 4 | 0.29 | – | – | –
Cn1nnc2cc(CN([C@@H]3CCCCNC3=O)S(=O)(=O)c3ccc(Cl)cc3)ccc21 | – | – | 0.012 | – | – | –
CCCNC(=O)c1ccc(CN([C@@H]2CCCCNC2=O)S(=O)(=O)c2ccc(Cl)cc2)cc1 | 0.026 | 0.5 | 0.045 | – | – | –
O=C1NCCCC[C@H]1N(Cc1cc2ccccc2s1)S(=O)(=O)c1ccc(Cl)cc1 | 0.046 | 6 | 0.007 | – | – | –
O=C1NCCCC[C@H]1N(Cc1ccc2ncccc2c1)S(=O)(=O)c1ccc(Cl)cc1 | 0.004 | 0.6 | 0.006 | 1.8 | 62 | 20
Cc1cccc(CN([C@@H]2CCCCNC2=O)S(=O)(=O)c2ccc(Cl)cc2)n1 | 9.32 | 2 | 5.36 | – | – | –
O=C1NCCCC[C@H]1N(Cc1cc2ccccc2o1)S(=O)(=O)c1ccc(Cl)cc1 | 0.03 | 2 | 0.012 | – | – | –
